Data published in US20130261066A1, “TREATMENT OF INFLAMMATORY BOWEL DISEASES USING A TRIPEPTIDE” (THE RESEARCH FOUNDATION OF STATE UNIVERSITY OF NEW YORK, priority 2010, published 2013).

The substances below were run on NF-kB (assay: Inhibition of NF-kB by D-amino-acid and cyclized peptides).
Description: The following acetylated peptides, composed of D amino acids, were synthesized and tested for inhibition of NF-kB: 1) Ac-dGln-dALa-dTrp (SEQ ID NO:9); and 2) Ac-dPhe-dLeu-dLys-dGln-dALa-dTrp (SEQ ID NO:10). […] The following acetylated peptide, cyclized through its N- and C-terminals, was synthesized and tested for inhibition of NF-kB: Ac-Phe-Leu-Lys-Gln-Ala-Trp (SEQ ID NO:6).
With “Ac-Phe-Leu-Lys-Gln-Ala-Trp (Ac-cyclo(FLKQAW))” the “inhibition of NF-kB” value was “effective inhibition of NF-kB”.
For Ac-dGln-dALa-dTrp, the “inhibition of NF-kB” value was “effective inhibition of NF-kB”.
Ac-dPhe-dLeu-dLys-dGln-dALa-dTrp was tested, and the “inhibition of NF-kB” value was “effective inhibition of NF-kB”.
